The record followed here is publication PMC12858634, “Functional characterisation of Target of Rapamycin (TOR) signalling in Physcomitrella” (Plant Cell Reports, 2026).

The assay addresses T1, PpFKBP12 (Physcomitrium patens, UniProt A0A2K1L9Z1, M56K/G57Q/R58E).
T1 construct: gene LOC112274967
In words: yeast fkbp12 deletion complementation, growth spot assay. Type of assay: cell-based. To be noted: rapamycin 100 or 200 nM, galactose medium, 30 °C, 5 days; acts as FKBP12-rapamycin complex on host yeast TOR.

T1 sequence (A0A2K1L9Z1 entry or part of it M56K/G57Q/R58E): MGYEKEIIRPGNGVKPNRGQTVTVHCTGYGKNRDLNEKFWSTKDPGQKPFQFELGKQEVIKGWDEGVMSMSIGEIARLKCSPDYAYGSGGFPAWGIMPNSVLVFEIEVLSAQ

`CO[C@H]1C[C@@H]2CC[C@@H](C)[C@@](O)(O2)C(=O)C(=O)N2CCCC[C@H]2C(=O)O[C@H]([C@H](C)C[C@@H]2CC[C@@H](O)[C@H](OC)C2)CC(=O)[C@H](C)/C=C(\C)[C@@H](O)[C@@H](OC)C(=O)[C@H](C)C[C@H](C)/C=C/C=C/C=C/1C` [rapamycin]: the “yeast fkbp12 deletion complementation, growth spot assay” value was “all but PpFKBP12^W40D complemented the rapamycin-resistant phenotype of fkbp12Δ cells”.
